SMILES strings stand for the structures.

Data set [1] addresses recombinant human wild type Cyp18 (Cyp18 wt) (Homo sapiens, UniProt P62937). Nature of the data set: biochemical.
The nature of another data set: in vitro. To be noted: human, Caco-2, pH 7.4.
A further data set concerns the target calcineurin (Homo sapiens, UniProt P62937+P63098+Q08209). Briefly: Inhibition of the phosphatase activity of calcineurin (scintillation-proximity-assay, in presence of Cyp18).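 Further: calcineurin dephosphorylation of a ³³P-labelled RII phosphopeptide, captured on streptavidin-coated wells and read by scintillation counting, with uninhibited enzyme activity taken as 100%.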
A short description of data set [2]: Determination of cell permeability in PAMPA cell membranes (Parallel Artificial Membrane Permeability Assay). It counts as in vitro ADME. Particulars: 500 μM, Hepes buffer pH 7.4, 16 hours, room temperature. On the procedure:
After an incubation of 16 hours at room temperature in a liquid chamber the optical density of the solution after filtration has been measured in a range of 250 to 500 nm in steps of 10 nm each. The percentage “Flux” has been calculated from the integral of the graph between 250 and 500 nm and standardized on the optical density determined in the parallel reaction without artificial membrane.

For the next data set, the system named is NFAT. Nature of the data set: Cellular NFAT-reporter-gene assay (GloResponse NFAT-RE-luc2P HEK293). Type of data set: cell-based. Particulars: Homo sapiens, HEK293, 16 h, read-out: NFAT-reporter-gene assay IC50. The source says: An antigen specific stimulation of the T-cell receptor causes the activation of transcription factors such as e.g. NFAT (nuclear factor of activated T cells). NFAT-activation is essential for the expression of interleukine-2 and therefore, for the proliferation of T-cells as part of the immune response. A stable NFAT-reporter-gene cell line enables the analysis of modulators of the NFAT-pathways and thus, the evaluation of the immunosuppressive effects of compounds.
The stably transfected reporter-gene cell line GloResponse NFAT-RE-luc2P HEK293 (promega Corp. USA) was cultivated in DMEM (10% FCS; 2 mM Glutamin; 200 μg/ml Hygromycin) and seeded on 96-well plates (200.000 cells/well). The compounds to be tested were either added to the cells in a 2-point-determination (5 μM and 10 μM) or an ICH-determination (concentration series 4.1 nM-1 μM). […] Immediately thereafter the cells were stimulated with 5 nM PMA and 2 μM ionomycin and incubated over 16 h (37° C.; cell incubator). This double stimulation simulates a T-cell receptor stimulation and causes a NFAT activation with subsequently expression of the luciferase-reporter-gene. The amount of luciferase was quantitatively determined after 16 h by measurement of the bioluminescence by Bright-Glo Luciferase-Assay-System (Promega Corp., USA). The averaged luciferase values of the vehicle treated (1% DMSO) and with PMA/ionomycin stimulated cells were used as positive control and reference value.

Data set [3] deals with ovalbumin sensitized mice (BALB/c-strain). Nature of the data set: Asthma evaluations (ovalbumin sensitized mice). Type of data set: in vivo. Particulars: 200 μg i.p. at days 7, 9 and 11. As to the method: By application of ovalbumin together with aluminium hydroxide an immune response to ovalbumin is provoked. The immune response may be traced using the immigrated T-helper cell population (CD4+) and the immigrated eosinophilic granulocytes. Female mice (BALB/c-strain) were sensitized by intraperitoneal (i.p.) application of 50 μg ovalbumin solved in phosphate buffer (PBS) ((OVA) plus 100 μl aluminium hydroxide) with a total volume of 200 μl per mouse on day 0. 100 μg OVA in PBS (50 μl total volume) was intranasal administered to the ovalbumin sensitized mice under mild anesthesia (isoflurane) at days 7-10. These animals were divided into groups which obtained in addition either 200 μg test compound in PBS (i.p.), only PBS (diluent) or no further additive (−) at days 7, 9 and 11. At day 12 all animals were sacrificed by CO2 exposition and cells of the bronchial tract were obtained by bronchial lavage (BAL) with threefold washing with 1 ml of cold PBS each using a cannula introduced into the trachea. The cells obtained by BAL were then stained twice (a) with Cy-chrome conjugated anti-mouse CD4 antibodies and (b) with FITC conjugated anti-mouse CD62L antibodies. Subsequently, the cells were analyzed by FACS. Effector/memory CD4^+ T-cells were differentiated as CD4^+/CD62L^− lymphocytes and eosinophilic cells using their stray light characteristics (FSC/CCS).

In another data set the test system is Jurkat cells. Nature of the data set: Determination of cell permeability in Jurkat cells (displacement of fluorescent CsA derivative, FACS). Type of data set: cell-based. To be noted: FIG. 1; in comparison to CsA. As to the method: Jurkat cells of the cell culture have been harvested and centrifuged. The medium has been discarded and the cells were washed once with RPM′ (without phenol red, 10% FCS, Hepes, gentamicin). The cells were re-suspended in a medium adjusted to a cell concentration of 1.0×10^5-3.0×10^5 cells/ml and subsequently incubated with a fluorescent CsA derivative (0.5 μM-2.0 μM) at 37° C., 5-10% CO2 and 100% humidity. The cells were then centrifuged, the medium discarded and the cell pellet was washed once with medium and the cells were resuspended in a new medium. Subsequently, the cells were incubated for a half hour to 4 hours with the corresponding concentration (0.01 μM to 100 μM) of the test compound to be analyzed and then centrifuged again. The medium was discarded; it was once washed with 1 ml PBS and suspended in 500 μl PBS. The analysis was carried out using FACS-measurement by quantification of the replaced fluorescent CsA-derivative. The reference (without inhibitor) was thereby set 100%.

Sequence of recombinant human wild type Cyp18 (Cyp18 wt) (P62937 whole entry): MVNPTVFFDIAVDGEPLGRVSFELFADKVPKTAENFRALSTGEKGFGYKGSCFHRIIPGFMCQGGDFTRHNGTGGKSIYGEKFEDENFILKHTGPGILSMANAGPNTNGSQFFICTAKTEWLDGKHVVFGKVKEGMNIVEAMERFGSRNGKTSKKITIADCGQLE

Turning to `CC[C@@H]1NC(=O)[C@H]([C@H](O)[C@H](C)Cc2nc3cc(C(=N)N)ccc3[nH]2)N(C)C(=O)[C@H](C(C)C)N(C)C(=O)[C@H](CC(C)C)N(C)C(=O)[C@H](CC(C)C)N(C)C(=O)[C@@H](C)NC(=O)[C@H](C)NC(=O)[C@H](CC(C)C)N(C)C(=O)[C@H](C(C)C)NC(=O)[C@H](CC(C)C)N(C)C(=O)CN(C)C1=O` [Compound 35], the IC50 in data set [1] is 0.012 µM; at calcineurin, 4.8 µM; with NFAT, above 10 µM. Besides, the Papp A→B at 2 h, 5 μM in “in vitro” was below 0.35 ×10⁻⁶ cm/s. In addition, the Papp B→A at 2 h, 5 μM in the data set “in vitro” was below 0.46 ×10⁻⁶ cm/s. Also, the “Cell permeability in PAMPA-cell membranes” value in data set [2] is given as 4 % flux.

For the molecule `CC[C@@H]1NC(=O)[C@H]([C@H](O)[C@H](C)Cc2nc3cc(C(=O)O)ccc3n2C)N(C)C(=O)[C@H](C(C)C)N(C)C(=O)[C@H](CC(C)C)N(C)C(=O)[C@H](CC(C)C)N(C)C(=O)[C@@H](C)NC(=O)[C@H](C)NC(=O)[C@H](CC(C)C)N(C)C(=O)[C@H](C(C)C)NC(=O)[C@H](CC(C)C)N(C)C(=O)CN(C)C1=O` [Compound 36], the apical-to-basolateral permeability (Papp A→B) at 2 h, 5 μM in the data set “in vitro” turned out to be 0.3 ×10⁻⁶ cm/s. Moreover, the IC50 at calcineurin and in the data set on NFAT was above 10 µM each time. Besides, in data set [2], the “Cell permeability in PAMPA-cell membranes” value is listed as 0.7 % flux.

For `CC[C@@H]1NC(=O)[C@H]([C@H](O)[C@H](C)Cc2nc3cc(S(N)(=O)=O)ccc3[nH]2)N(C)C(=O)[C@H](C(C)C)N(C)C(=O)[C@H](CC(C)C)N(C)C(=O)[C@H](CC(C)C)N(C)C(=O)[C@@H](C)NC(=O)[C@H](C)NC(=O)[C@H](CC(C)C)N(C)C(=O)[C@H](C(C)C)NC(=O)[C@H](CC(C)C)N(C)C(=O)CN(C)C1=O` [Compound 34], the IC50 is 0.0164 µM in data set [1], 6.4 µM at calcineurin and above 10 µM in the data set on NFAT. The molecule also came in with a Papp A→B at 2 h, 5 μM in “in vitro” below 0.6 ×10⁻⁶ cm/s. Moreover, the Papp B→A at 2 h, 5 μM in “in vitro” worked out at 0.87 ×10⁻⁶ cm/s. For the same molecule, the “Cell permeability in PAMPA-cell membranes” value in data set [2] is given as 19.9 % flux.

Consider `CC[C@@H]1NC(=O)[C@H]([C@H](O)[C@H](C)Cc2nc3cc(NC(=N)N)ccc3[nH]2)N(C)C(=O)[C@H](C(C)C)N(C)C(=O)[C@H](CC(C)C)N(C)C(=O)[C@H](CC(C)C)N(C)C(=O)[C@@H](C)NC(=O)[C@H](C)NC(=O)[C@H](CC(C)C)N(C)C(=O)[C@H](C(C)C)NC(=O)[C@H](CC(C)C)N(C)C(=O)CN(C)C1=O` [Compound 46], for which the IC50 was 0.0131 µM in data set [1], 6.63 µM at calcineurin and above 10 µM with NFAT. In the data set “in vitro”, this molecule displayed a Papp A→B at 2 h, 5 μM of 0.4 ×10⁻⁶ cm/s. Moreover, the “Cell permeability in PAMPA-cell membranes” value in data set [2] is 13.5 % flux.

In the data set “in vitro”, `CC[C@@H]1NC(=O)[C@H]([C@H](O)[C@H](C)Cc2nc3ccc(C(=O)O)cc3[nH]2)N(C)C(=O)[C@H](C(C)C)N(C)C(=O)[C@H](CC(C)C)N(C)C(=O)[C@H](CC(C)C)N(C)C(=O)[C@@H](C)NC(=O)[C@H](C)NC(=O)[C@H](CC(C)C)N(C)C(=O)[C@H](C(C)C)NC(=O)[C@H](CC(C)C)N(C)C(=O)CN(C)C1=O` [Compound 5] registered a Papp A→B at 2 h, 5 μM of 0.17 ×10⁻⁶ cm/s and a Papp B→A at 2 h, 5 μM of 0.13 ×10⁻⁶ cm/s. For the same molecule, the half-maximal inhibitory concentration (IC50) at calcineurin was above 10 µM. For the same molecule, in data set [3] (FIG. 3), the “Number of eosinophilic granulocytes (eosinophils) in bronchial lavage” value is “reduced very significantly”. Further, the “Number of eosinophilic granulocytes (eosinophils) in lung tissue” value in data set [3] (FIG. 4) is listed as “reduced very significantly”. Moreover, in data set [3] (FIG. 5), the “Number of CD4 positive T-cells in bronchial lavage (BAL)” value is reported as “reduced very significantly”. In addition, the “Number of CD4 positive T-cells in the lung tissue” value in data set [3] (FIG. 6) was “reduced very significantly”. The “Cell permeability in PAMPA-cell membranes” value in data set [2] is reported as 1.7 % flux. Besides, the IC50 with NFAT is above 10 µM. Also, in the data set with Jurkat cells, the “Cell permeability in Jurkat cells” value is given as “not cell permeable”.

For `CC[C@@H]1NC(=O)[C@H]([C@H](O)[C@H](C)Cc2nc3cc(S(=O)(=O)O)ccc3[nH]2)N(C)C(=O)[C@H](C(C)C)N(C)C(=O)[C@H](CC(C)C)N(C)C(=O)[C@H](CC(C)C)N(C)C(=O)[C@@H](C)NC(=O)[C@H](C)NC(=O)[C@H](CC(C)C)N(C)C(=O)[C@H](C(C)C)NC(=O)[C@H](CC(C)C)N(C)C(=O)CN(C)C1=O` [Compound 22], the results for the IC50 (in data set [1]; on calcineurin; with NFAT) were 0.0087 µM, above 10 µM and above 10 µM, respectively. The same molecule yielded a Papp A→B at 2 h, 5 μM in the data set “in vitro” of 0.9 ×10⁻⁶ cm/s. The “Cell permeability in PAMPA-cell membranes” value in data set [2] was determined as 4.1 % flux.

Source of the values: patent US9453051B2, “Cyclosporin derivatives” (priority 2011, dated 2016).
